# According to US8822432B2, “Equol production accelerating composition” (Unitika Ltd., priority 2006, dated 2014):
# Test system: equol production in the intestines
# Assay: Equol production accelerating effect in rats: equol concentration in blood plasma after 5 weeks of sample-mixed feed
# Assay type: in vivo, SD rats
# Details: week 5
# Source text: Calcium lactobionate (manufactured by Sigma Aldrich) was mixed with a rat powder feed (CRF-1, manufactured by Oriental Yeast Co., Ltd.) to a concentration of 0, 0.5 or 3.0% by weight. Also, as comparative controls, a 1.5% by weight difructose-dianhydride III (DFA-III) (manufactured by Wako Pure Chemical Industries, Ltd)-mixed powder feed and a 1.5% by weight fructo-oligosaccharide (FOS) (manufactured by Wako Pure Chemical Industries, Ltd)-mixed powder feed were used.
# Acclimatization rearing of 3 animals per group of 5-week-old SD rats (manufactured by Clea Japan, Inc.) was carried out for 1 week by allowing to freely ingest the powder feed CRF-1 and water. The time of completion of the acclimatization rearing was regarded as the […] Starting from the week 0, respective groups were allowed to freely ingest the calcium lactobionate-mixed powder feed prepared in the above. The control groups were allowed to ingest a general powder feed.
# The conjugated soybean isoflavone presenting in the rat blood plasma was converted into its free state using β-glucuronidase, and then equol was measured using an LC/MS/MS system. As the instruments for analysis, HP1100 Series, Agilent Technologies, was used in the LC, and Quattro-Ultima, Micromass was used in the MS/MS. […]
compound,measurement,setting,value
"O=C([O-])[C@H](O)[C@@H](O)[C@H](O[C@@H]1O[C@H](CO)[C@H](O)[C@H](O)[C@H]1O)[C@H](O)CO.O=C([O-])[C@H](O)[C@@H](O)[C@H](O[C@@H]1O[C@H](CO)[C@H](O)[C@H](O)[C@H]1O)[C@H](O)CO.[Ca+2] [calcium lactobionate, Calcium lactobionate]","equol concentration in blood plasma, times of the control group","calcium lactobionate-mixed powder feed (0.5 or 3.0% by weight), free ingestion",2 to 3 times of the control group
same,equol concentration in blood plasma compared to the DFA-III and fructo-oligosaccharide,mixed powder feed,high
